Structures can show the parent of a compound that is named as a salt.
How the values were obtained:
[1] = target: T1, HCV polymerase 1B (Δ21 NS5B, BK) (Hepatitis C virus genotype 1b, UniProt P26663); assay: biochemical
T1 construct: 20 to 50 nM Δ21 NS5B
Protocol: (§1) HCV Polymerase Inhibition Assay
(§2) Either two-fold serial dilutions (fractional inhibition assay) or a narrower range of dilutions spanning the IC50 of the inhibitor (tight binding assay) of the inhibitors were incubated with 20 mM Tris-Cl pH 7.4, 2 mM MnCl2, 1 mM dithiothreitol, 1 mM ethylene diamine tetraacetic acid (EDTA), 60 to 125 μM GTP and 20 to 50 nM Δ21 NS5B (HCV Strain 1B (BK, Genbank accession number M58335, or H77, Genbank accession number AF011751)) for 15 min at room temperature. The reaction was initiated by the addition of 20 μM CTP, 20 μM ATP, 1 μM ^3H-UTP (10 mCi/umol), 5 nM template RNA and 0.1 U/μl RNase inhibitor (RNasin, Promega), and allowed to proceed for 2 to 4 h at room temperature. Reaction volume was 50 μl. The reaction was terminated by the addition of 1 volume of 4 mM spermine in 10 mM Tris-Cl pH 8.0, 1 mM EDTA. After incubation for at least 15 min at room temperature, the precipitated RNA was captured by filtering through a GF/B filter (Millipore) in a 96 well format. The filter plate was washed three times with 200 μl each of 2 mM spermine, 10 mM Tris-Cl pH 8.0, 1 mM EDTA, and 2 times with ethanol. After air-drying, 30 μl of Microscint 20 scintillation cocktail (Packard) was added to each well, and the retained cpm were determined by scintillation counting. […] Retained cpm were plotted vs. inhibitor concentration and fit to equation 1 using non-linear regression (ref. 1) to obtain the IC50 values: Retained cpm=A[sqrt{(IC50+It−Et)^2+4*IC50*Et}−(IC50+It−Et)]
Ref. Morrison, J. F. and S. R. Stone. 1985. Approaches to the study and analysis of the inhibition of enzymes by slow- and tight-binding inhibitors. Comments Mol. Cell. Biophys. 2: 347-368.
The sequence of the template RNA used was: 5′-[…] […] […] […] […] […] […] […] […] […] […] […] […] […] […] […] […]-3′ (SEQ ID NO: 1)

[2] = target: T2, HCV polymerase 1A (Δ21 NS5B, H77) (Hepatitis C virus genotype 1a, UniProt P27958); assay: biochemical; conditions: IC50 1a
T2 construct: 20 to 50 nM Δ21 NS5B
Protocol: as §1
as §2, with “The” for “Either two-fold serial dilutions (fractional inhibition assay) or a narrower range of dilutions spanning the IC50 of the inhibitor (tight binding assay) of the inhibitors were incubated with 20 mM Tris-Cl pH 7.4, 2 mM MnCl2, 1 mM dithiothreitol, 1 mM ethylene diamine tetraacetic acid (EDTA), 60 to 125 μM GTP and 20 to 50 nM Δ21 NS5B (HCV Strain 1B (BK, Genbank accession number M58335, or H77, Genbank accession number AF011751)) for 15 min at room temperature. The”
Ref. Morrison, J. F. and S. R. Stone. […] Approaches to the study and analysis of the inhibition of enzymes by slow- and tight-binding inhibitors. Comments Mol. Cell. Biophys.
The sequence of the template RNA used was: 5′-[…]

[3] = test system: genotype 1b-Con1 subgenomic replicon cell line; assay: microbe, parasite or virus in culture; type: cell-based, HCV; conditions: Hepatitis C virus, read-out: EC50 1b

T2 sequence (P27958 2421-2990, stated change not applied): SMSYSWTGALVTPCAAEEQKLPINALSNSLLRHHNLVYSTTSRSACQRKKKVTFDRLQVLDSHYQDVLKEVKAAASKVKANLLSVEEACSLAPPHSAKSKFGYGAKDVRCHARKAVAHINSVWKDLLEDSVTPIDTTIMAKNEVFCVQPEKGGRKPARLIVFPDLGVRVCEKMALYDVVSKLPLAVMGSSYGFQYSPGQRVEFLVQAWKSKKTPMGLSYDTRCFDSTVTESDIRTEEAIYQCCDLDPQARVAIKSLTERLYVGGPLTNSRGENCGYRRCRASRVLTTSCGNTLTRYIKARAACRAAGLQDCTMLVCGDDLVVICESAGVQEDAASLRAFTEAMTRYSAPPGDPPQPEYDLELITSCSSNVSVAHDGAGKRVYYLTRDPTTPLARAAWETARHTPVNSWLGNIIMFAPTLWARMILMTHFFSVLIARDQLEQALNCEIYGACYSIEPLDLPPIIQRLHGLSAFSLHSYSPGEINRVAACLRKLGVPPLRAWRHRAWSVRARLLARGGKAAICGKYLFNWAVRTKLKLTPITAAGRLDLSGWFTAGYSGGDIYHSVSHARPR
T1 sequence (P26663 2420-2989, stated change not applied): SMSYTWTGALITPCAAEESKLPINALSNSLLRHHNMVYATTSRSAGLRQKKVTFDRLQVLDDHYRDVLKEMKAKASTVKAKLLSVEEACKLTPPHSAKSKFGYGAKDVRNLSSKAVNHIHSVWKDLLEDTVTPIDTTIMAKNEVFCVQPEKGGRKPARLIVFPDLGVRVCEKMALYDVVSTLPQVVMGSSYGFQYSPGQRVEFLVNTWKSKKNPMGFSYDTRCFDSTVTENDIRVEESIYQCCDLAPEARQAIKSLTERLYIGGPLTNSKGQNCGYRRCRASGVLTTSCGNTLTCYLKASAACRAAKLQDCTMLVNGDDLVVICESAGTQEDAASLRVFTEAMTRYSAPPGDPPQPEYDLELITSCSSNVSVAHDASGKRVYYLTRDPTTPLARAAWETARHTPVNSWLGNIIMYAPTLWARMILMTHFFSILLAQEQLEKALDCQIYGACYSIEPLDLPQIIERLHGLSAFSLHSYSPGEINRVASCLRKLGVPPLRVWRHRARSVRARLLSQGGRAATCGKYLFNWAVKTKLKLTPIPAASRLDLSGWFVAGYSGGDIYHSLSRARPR

Compound	IC50 [1]	IC50 [2]	EC50 [3]
COc1c(C(=O)Nc2ccc(NS(C)(=O)=O)cn2)cc(N2CCC(=O)NC2=O)cc1C(C)(C)C [IA-L3-1.102, 3-tert-butyl-5-(2,4-dioxotetrahydropyrimidin-1(2H)-yl)-2-methoxy-N-(5-(methylsulfonamido)pyridin-2-yl)benzamide]	0.1 to 1 µM	0.1 to 1 µM	0.1 to 1 µM
COc1c(C#Cc2cc(F)c(NS(C)(=O)=O)c(F)c2)cc(-n2ccc(=O)[nH]c2=O)cc1C(C)(C)C [IB-L2-1.4, N-(4-((3-tert-butyl-5-(2,4-dioxo-3,4-dihydropyrimidin-1(2H)-yl)-2-methoxyphenyl)ethynyl)-2,6-difluorophenyl)methanesulfonamide]	0.01 to 0.1 µM	0.01 to 0.1 µM	0.1 to 1 µM
COc1c(C(=O)Nc2ccc(NS(C)(=O)=O)cc2)cc(-n2c(C)cc(=O)[nH]c2=O)cc1C(C)(C)C [IB-L3-1.3, 3-tert-butyl-2-methoxy-5-(6-methyl-2,4-dioxo-3,4-dihydropyrimidin-1(2H)-yl)-N-(4-(methylsulfonamido)phenyl)benzamide]	> 1 µM	0.1 to 1 µM	0.1 to 1 µM
COc1c(C(=O)Nc2ccc(N)nc2)cc(N2CCC(=O)NC2=O)cc1C(C)(C)C [IA-L3-1.100, N-(6-aminopyridin-3-yl)-3-tert-butyl-5-(2,4-dioxotetrahydropyrimidin-1(2H)-yl)-2-methoxy benzamide]	0.1 to 1 µM	> 1 µM	> 1 µM
CC(C)(C)c1cc(N2CCC(=O)NC2=O)cc(CN2CCC[C@@H](O)C2)c1O [IA-L5-1-1.6, 1-[3-tert-butyl-4-hydroxy-5-((R)-3-hydroxy-piperidin-1-ylmethyl)-phenyl]-dihydro-pyrimidine-2,4-dione; compound with trifluoroacetic acid]	> 1 µM	> 1 µM	
CC(C)(C)c1cc(N2CCC(=O)NC2=O)cc(CN2CCCC(CNS(C)(=O)=O)C2)c1O (stereo not drawn) [IA-L5-1-1.2, N-{1-[3-tert-butyl-5-(2,4-dioxo-tetrahydro-pyrimidin-1-yl)-2-hydroxy-benzyl]-piperidin-3-ylmethyl}-methanesulfonamide]	> 1 µM	> 1 µM	
CCOC(=O)CC(=O)c1ccc(NC(=O)c2cc(N3CCC(=O)NC3=O)cc(C(C)(C)C)c2OC)cc1 [IA-L3-1.43, ethyl 3-(4-(3-tert-butyl-5-(2,4-dioxotetrahydropyrimidin-1(2H)-yl)-2-methoxybenzamido)phenyl)-3-oxopropanoate]	> 1 µM	> 1 µM	
COc1c(C(=O)Nc2ccc(S(C)(=O)=O)cc2)cc(N2CCC(=O)NC2=O)cc1C(C)(C)C [IA-L3-1.78, 3-tert-butyl-5-(2,4-dioxotetrahydropyrimidin-1(2H)-yl)-2-methoxy-N-(4-(methylsulfonyl)phenyl)benzamide]	> 1 µM	> 1 µM	
CC(C)(C)c1cc(N2CCC(=O)NC2=O)cc(NC(=O)c2ccccc2)c1O [IA-L4-1.2, N-(3-tert-butyl-5-(2,4-dioxotetrahydropyrimidin-1(2H)-yl)-2-hydroxyphenyl)benzamide]	> 1 µM	> 1 µM	
CC1CCCN(Cc2cc(N3CCC(=O)NC3=O)cc(C(C)(C)C)c2O)C1 (stereo not drawn) [IA-L5-1-1.4, 1-[3-tert-butyl-4-hydroxy-5-(3-methyl-piperidin-1-ylmethyl)-phenyl]-dihydro-pyrimidine-2,4-dione; compound with trifluoroacetic acid]	> 1 µM	> 1 µM	
COCCOC(=O)N(c1ccc(NC(=O)c2cc(N3CCC(=O)NC3=O)cc(C(C)(C)C)c2OC)cc1)S(C)(=O)=O [IA-L3-1.77, 2-methoxyethyl 4-(3-tert-butyl-5-(2,4-dioxotetrahydropyrimidin-1(2H)-yl)-2-methoxybenzamido)phenyl(methylsulfonyl)carbamate]	> 1 µM	> 1 µM	
CC(C)(C)OC(=O)NC1CCN(Cc2cc(N3CCC(=O)NC3=O)cc(C(C)(C)C)c2O)C1 (stereo not drawn) [IA-L5-1-1.12, {1-[3-tert-butyl-5-(2,4-dioxo-tetrahydro-pyrimidin-1-yl)-2-hydroxy-benzyl]-pyrrolidin-3-yl}-carbamic acid tert-butyl ester]	> 1 µM	> 1 µM	
CC(C)(C)c1cc(N2CCC(=O)NC2=O)cc(CN2CCCc3cc(NS(C)(=O)=O)ccc32)c1O [IA-L5-1-2.2, N-(1-(3-tert-butyl-5-(2,4-dioxotetrahydropyrimidin-1(2H)-yl)-2-hydroxybenzyl)-1,2,3,4-tetrahydroquinolin-6-yl)methanesulfonamide]	> 1 µM	> 1 µM	
COc1c(C(=O)Nc2ccc(N(COC(=O)C(C)(C)C)S(C)(=O)=O)cc2)cc(N2CCC(=O)N(COC(=O)C(C)(C)C)C2=O)cc1C(C)(C)C [IA-L3-1.116, (3-(3-tert-butyl-4-methoxy-5-(4-(N-(pivaloyloxymethyl)methylsulfonamido)phenylcarbamoyl)phenyl)-2,6-dioxotetrahydropyrimidin-1(2H)-yl)methyl pivalate]	> 1 µM	> 1 µM	
COc1c(C(=O)Nc2ccc(NC(C)=O)cc2)cc(N2CCC(=O)NC2=O)cc1C(C)(C)C [IA-L3-1.47, N-(4-acetamidophenyl)-3-tert-butyl-5-(2,4-dioxotetrahydropyrimidin-1(2H)-yl)-2-methoxy-benzamide]	> 1 µM	> 1 µM	
CCN(CC)C(=O)C1CCCN(Cc2cc(N3CCC(=O)NC3=O)cc(C(C)(C)C)c2O)C1 (stereo not drawn) [IA-L5-1-1.7, 1-[3-tert-butyl-5-(2,4-dioxo-tetrahydro-pyrimidin-1-yl)-2-hydroxy-benzyl]-piperidine-3-carboxylic acid diethylamide, trifluoroacetic acid salt]	> 1 µM	> 1 µM	
COc1c(C(=O)Nc2ccccc2S(C)(=O)=O)cc(N2CCC(=O)NC2=O)cc1C(C)(C)C [IA-L3-1.79, 3-tert-butyl-5-(2,4-dioxotetrahydropyrimidin-1(2H)-yl)-2-methoxy-N-(2-(methylsulfonyl)phenyl)benzamide]	> 1 µM	> 1 µM	
CC(C)(C)OC(=O)NC1CCN(Cc2cc(N3CCC(=O)NC3=O)cc(C(C)(C)C)c2O)CC1 [IA-L5-1-1.1, {1-[3-tert-butyl-5-(2,4-dioxo-tetrahydro-pyrimidin-1-yl)-2-hydroxy-benzyl]-piperidin-4-yl}-carbamic acid tert-butyl ester]	> 1 µM	> 1 µM	
COc1c(C(=O)Nc2ccc(N(S(C)(=O)=O)S(C)(=O)=O)cn2)cc(N2CCC(=O)NC2=O)cc1C(C)(C)C [IA-L3-1.101, 3-tert-butyl-5-(2,4-dioxotetrahydropyrimidin-1(2H)-yl)-2-methoxy-N-(5-(N-(methylsulfonyl)methylsulfonamido)pyridin-2-yl)benzamide]	> 1 µM	> 1 µM	
COc1c(Cc2cn(C)c3ccccc23)cc(N2CCC(=O)NC2=O)cc1C(C)(C)C [IA-L5-1-2.1, 1-(3-tert-butyl-4-methoxy-5-((1-methyl-1H-indol-3-yl)methyl)phenyl)dihydropyrimidine-2,4(1H,3H)-dione]	> 1 µM	> 1 µM	
COc1c(C(=O)Nc2ccc(N(COC(C)=O)S(C)(=O)=O)cc2)cc(N2CCC(=O)NC2=O)cc1C(C)(C)C	> 1 µM	0.1 to 1 µM	
COc1c(C(=O)Nc2ccc(C(C)=O)cc2)cc(N2CCC(=O)NC2=O)cc1C(C)(C)C [IA-L3-1.42, N-(4-acetylphenyl)-3-tert-butyl-5-(2,4-dioxotetrahydropyrimidin-1(2H)-yl)-2-methoxy-benzamide]	> 1 µM	> 1 µM	

From patent US8415351B2 (priority 2007, dated 2013)
